Laboratory results taken from patent US5439919A, “Arylglycinamide derivatives and preparative processes therefor” (Kyorin Pharmaceutical Co., Ltd., priority 1992, dated 1995).
Where a name gives a salt, the structure may show the parent alone.

Legend:
muscarinic receptor = biological target: T1, muscarinic receptor (Cavia porcellus, UniProt H0W1Z3); test: Anticholinergic action on the specimen of isolated guinea pig ileum; conditions: affinity to muscarinic receptor, concentration converted from pA2 value obtained from Schild's plot, acetylcholine contraction
T1 construct: from tissue; host or cells: isolated ileum of male guinea pig
T1 sequence (H0W1Z3 1-590): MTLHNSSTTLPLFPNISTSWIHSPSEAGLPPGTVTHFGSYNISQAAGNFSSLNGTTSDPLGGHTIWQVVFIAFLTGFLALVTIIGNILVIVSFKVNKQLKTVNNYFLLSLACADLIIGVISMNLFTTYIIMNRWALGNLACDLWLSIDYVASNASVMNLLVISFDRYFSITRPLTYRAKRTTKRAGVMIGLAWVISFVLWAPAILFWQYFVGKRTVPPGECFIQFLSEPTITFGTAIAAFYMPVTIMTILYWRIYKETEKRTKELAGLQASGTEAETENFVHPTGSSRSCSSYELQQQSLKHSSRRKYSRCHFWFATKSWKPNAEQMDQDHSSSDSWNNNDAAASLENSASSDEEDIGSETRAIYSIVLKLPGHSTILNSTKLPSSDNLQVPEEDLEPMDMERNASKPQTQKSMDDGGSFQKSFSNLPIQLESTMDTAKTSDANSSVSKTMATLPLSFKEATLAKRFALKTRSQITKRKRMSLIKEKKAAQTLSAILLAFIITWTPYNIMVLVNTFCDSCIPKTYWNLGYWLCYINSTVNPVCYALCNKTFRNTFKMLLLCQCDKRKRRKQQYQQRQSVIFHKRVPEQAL
Method: A specimen (length ca. 2 cm) of male guinea pig ileum was suspended into a 10 ml-organ bath filled up with Tyrode solution. The Tyrode solution was constantly gassed with 95% O2 +5% CO2 and maintained at 37 ° C. The contraction was recorded on a pen-and-ink recorder via an isotonic transducer.
Acetylcholine was added cumulatively to the bath to obtain a consistent dose-response curve and then test compound in various concentrations was investigated on the dose-response curve of acetylcholine before and after the treatment for 5 minutes. The contraction was expressed by a ratio to the maximal contraction with acetylcholine in the absence of test compound. The affinity of test compound to the muscarinic receptor was determined by converting into the concentration from pA2 value obtained from Schild's plot.

[1] = system: urinary bladder (rhythmic bladder contraction); test: Inhibitory action on the rhythmic bladder contraction; assay type: in vivo; conditions: rat, intraduodenal; vs oxybutynin hydrochloride
Method: A male rat was fixed in a supine position under the halothane anesthesia and, a catheter with rubber balloon was inserted into urinary bladder through a small incision of apex of bladder exposed by abdominal opening along the midline and the purse-string suture was performed. The catheter was led out of the upper abdominal part sutured and a three-way stopcock was connected thereto, to one of which a syringe was connected and to other of which a pressure transducer for measuring the intravesical pressure was connected. The rhythmic bladder contraction was induced by infusion of about 0.1 to 0.3 ml of water into the balloon and, after obtaining the constant amplitude of rhythmic bladder contraction, test compound was administered intraduodenally. The inhibitory effects were estimated by the reduction in amplitude of the bladder contraction.

urinary bladder = test: Bladder selectivity (salivary secretion ID30 / rhythmic bladder contraction ED30); conditions: male rats, intraduodenal
Method: Male rats were given with small incision in the upper abdomen under urethane anesthesia and the test compound was administered intraduodenally. Thirty minutes later, 1 mg/kg of pilocarpine was administered subcutaneously. Saliva was collected on absorbent cotton kept in the mouth at every 30 minutes from the pilocarpine administration until 1.5 hours later. Antisecretory effects were estimated by the decrease in weight of absorbent cotton.

overactive detrusor = conditions: clinically; cited from earlier work

| Kb (muscarinic receptor) [µM] | SMILES | inhibitory activity on bladder compared with oxybutynin hydrochloride [1] | bladder selectivity (inhibitory activity on the salivary secretion (ID30)/inhibitory activity on the rhythmic bladder contraction (ED30)) (urinary bladder) | adverse effects (overactive detrusor) | clinical effectiveness (overactive detrusor) |
| --- | --- | --- | --- | --- | --- |
| 2.5 | CCN(CC)CCNC(C(=O)N(CC)CC)c1ccccc1 (stereo not shown) [Example 6] | almost equal to that of oxybutynin hydrochloride | 3 | – | – |
| 5 | CCN(CC)CCN(C)C(C(=O)NC(C)(C)C)c1ccccc1 (stereo not shown) [Example 14] | – | 4 | – | – |
| 16 | CCN(CC)C(=O)C(NCCNC(C)(C)C)c1ccccc1 (stereo not drawn) [Example 2, N, N-diethyl-α-[[2-(tert-butylamino)ethyl]amino]phenylacetamide] | – | 6 | – | – |
| 1.3 | CCN(CC)C(=O)C(NCCN(C(C)C)C(C)C)c1ccccc1 (stereo not shown) [Example 7] | almost equal to that of oxybutynin hydrochloride | 4 | – | – |
| 0.1 | CC(CC(c1ccccc1)c1ccccc1)NC(C)(C)C (stereo not shown) [Terodiline hydrochloride, reference compound] | – | 1 | frequently cause the adverse effects such as dry mouth and urinary retention | effective for treatment of syndrome elicited by bladder activity |

Continued, compound first:

| SMILES | Kb (muscarinic receptor) [µM] | inhibitory activity on bladder compared with oxybutynin hydrochloride [1] | bladder selectivity (inhibitory activity on the salivary secretion (ID30)/inhibitory activity on the rhythmic bladder contraction (ED30)) (urinary bladder) | adverse effects (overactive detrusor) | clinical effectiveness (overactive detrusor) |
| --- | --- | --- | --- | --- | --- |
| CC(C)(C)NCCNC(C(=O)NC1CCCCC1)c1ccccc1 (stereo not drawn) [Example 1, N-cyclohexyl-α-[[2-(tert-butylamino)ethyl]amino]phenylacetamide] | 0.79 | almost equal to that of oxybutynin hydrochloride | 5 | – | – |
| CCN(CC)CC#CCOC(=O)C(O)(c1ccccc1)C1CCCCC1 (stereo not shown) [Oxybutynin hydrochloride] | – | – | – | frequently cause the adverse effects such as dry mouth and urinary retention | effective for treatment of syndrome elicited by bladder activity |
| CCN(CC)C(=O)C(NCCNC(C)C)c1ccccc1 (stereo not shown) [Example 4] | 2 | – | 4 | – | – |
| CCN(CC)CCNC(C(=O)NC(C)(C)C)c1ccccc1 (stereo not drawn) [Example 3, N-tert-butyl-α-[[2-(diethylamino)ethyl]amino]phenylacetamide] | 3.2 | – | 4 | – | – |
| CCN(CC)CCNC(C(=O)N(C)CCc1ccc(OC)c(OC)c1)c1ccccc1 (stereo not shown) [Example 41] | 6.3 | – | 5 | – | – |
